Laboratory results reported in patent US20130115624A1, “Methods To Identify Modulators” (Givaudan S.A., priority 2010, published 2013).
Read-outs that look alike come from different tables or passages of the source.

Test system: Sham Transfected HEK293T/G16gust44 cells
Protocol: HEK293T/G16gust44 cells were used; they were formed as described in WO 2004/055048. The host cell line HEK-293T is commercially available from the American Tissue Culture Collection (ATCC), ATCC®#CRL-11268.
On day 0, the HEK293T/G16gust44 cells were plated in 96-well black wall, clear-bottom plates at a density of 15,000 cells per well and grown overnight in growth media (Dulbecco's modified Eagle's medium (DMEM) with 10% (v/v) heat-inactivated fetal bovine serum, 2 mM L-glutamine, 100 units/ml penicillin, 100 μg/ml streptomycin).
On day 1, the media was changed to an antibiotic-free and serum-free DMEM, and the cells were transfected with Lipofectamine 2000 (Invitorgen) according to the manufacturer's recommendations.
Per well of a 96-well plate, 150 ng of vector DNA (TAS2R41 expression vectors from example 1) was diluted in 12.5 μl of DMEM. In a second tube, 0.3 μl of Lipofectamine 2000 was diluted in 12.5 μl of DMEM and incubated for 5 min at room temperature. After the 5 min, both solutions were mixed and incubated for 20 min at RT.
The growth medium in the plate was exchanged with 50 μl of DMEM and 25 μl of the lipofectamine/DNA mixture (formed in the step above) and the cells were incubated for a further 3-4 hours at 37° in a humidified atmosphere. This mixture was then replaced with an antibiotic-free, serum-containing DMEM.
The above procedure was also carried out for HEK293T/G16gust44 cells formed as described in WO 2004/055048 with the exception that no DNA was added during the process (these cells are termed Sham transfected cells);
Each sample (receptors as well as controls) contained a final concentration of 0.02% Dimethyl sulphoxide (DMSO) to allow for comparability of all examples below.
On day 0, the HEK293T cells formed as described in example 2, were seeded in antibiotic-free growth medium (standard DMEM with 10% (v/v) heat-inactivated fetal bovine serum, 2 mM L-glutamine […]) into black wall/clear bottom 96-well plates, coated with poly(ethylenimine) (0.005% v/v) at a concentration of 15,000 cells per well and incubated for 48 hours in humidified atmosphere (37° C., 5% CO2).
Prior to performing the assay, the growth medium was discarded and the cells were left in a humidified atmosphere (37° C., 5% CO2) for 1 hour with 50 μl of loading buffer consisting of 1.5 μM Fluo-4 AM and […] probenicid (Sigma-Aldrich, St. Louis, Mo., US) in DMEM.
Following this the 96-well plate was washed 5 times with 100 μl of assay buffer (130 mM NaCl, 5 mM KCl, 10 mM 4-(2-hydroxyethyl)-1-piperazineethanesulfonic acid (HEPES), 2 mM CaCl2, and 5 mM dextrose, pH 7.4) per well, using an automated plate washer (BioTek).
The plate was then further incubated for 30 minutes at room temperature in the dark to allow for complete de-esterification of the Fluo-4. Afterwards the plate was washed 5 times with 100 μl of assay buffer per well, and reconstituted with 100 μl of assay buffer per well.
Cyclamate solutions ranging in concentration from 250 mM to 800 mM were prepared in assay buffer.
To test receptor activation 20 μl of one of these cyclamate test solutions was added to the assay buffer of at least one well of the 96 well plate. This step was repeated until all cyclamate solutions of differing concentrations had been added to at least one well. Care was taken to ensure that only one cyclamate solution was added per well. The resulting cyclamate concentrations in the well plates ranged in concentration from 25 mM to 80 mM (This is due to the dilution of the cyclamate solution in the assay buffer present in the well).
For assay reading, the plate was placed in a Fluorometric Imaging Plate Reader (FLIPR) (FLIPR-TETRA™, Molecular Devices, Sunnyvale, Calif., US).

O=S(=O)(O)NC1CCCCC1 [Cyclamate, cyclamate]
Cyclamate Average ΔF/F0 (25 mM cyclamate in well): 0.1588
Cyclamate Average ΔF/F0 (30 mM cyclamate in well): 0.1665
Cyclamate Average ΔF/F0 (35 mM cyclamate in well): 0.1676
Cyclamate Average ΔF/F0 (40 mM cyclamate in well): 0.1718
Cyclamate Average ΔF/F0 (45 mM cyclamate in well): 0.1765
Cyclamate Average ΔF/F0 (50 mM cyclamate in well): 0.1676
Cyclamate Average ΔF/F0 (55 mM cyclamate in well): 0.1682
Cyclamate Average ΔF/F0 (60 mM cyclamate in well): 0.1453
Cyclamate Average ΔF/F0 (65 mM cyclamate in well): 0.1382
Cyclamate Average ΔF/F0 (70 mM cyclamate in well): 0.1529
Cyclamate Average ΔF/F0 (75 mM cyclamate in well): 0.1329
Cyclamate Average ΔF/F0 (80 mM cyclamate in well): 0.1465
